Source: publication doi:10.1101/2023.07.11.548539v1, “A side-by-side comparison of peptide-delivered antisense antibiotics employing different nucleotide mimics” (bioRxiv, 2023)
Oligonucleotides are written 5' to 3', each unit as a sugar letter and its base; * is a phosphorothioate linkage, no mark a phosphodiester; rarer units and linkages stand in square brackets, end groups in braces. Plain capitals give the bases only. d = 2'-deoxy (DNA)

What was measured:
Salmonella periplasm = experiment: MALDI-TOF analysis of ASO-peptide conjugate uptake; type: cell-based; set-up: key: -: Effect strength is represented by additional (+) signs.; Effect strength is represented by additional (+) signs.; ++: Effect strength is represented by additional (+) signs.; +++: Effect strength is represented by additional (+) signs; details: summary grade; ASO conjugated to the carrier peptide
Procedure: The experiments were performed by modifying previously published protocols ([29]). From an overnight culture of Salmonella, a second culture was inoculated (1:100) and grown to OD600 of 0.5 (corresponding to ∼2×10^8 cfu/mL). These bacterial cells was washed twice in MHB and resuspended in 95 µl of MHB with an additional incubation at 37°C for 5-10 min. Sterile ASO-peptide conjugates were prepared at concentrations of 200 µM. 5 µl of the 200 µM working solutions were added to 95 µl of bacteria in culture media, leading to a final concentration of the compounds of 10 µM. 5 µl of H2O was added as a negative control. The tubes were incubated at 37°C for 15 min with shaking at 300 rpm. Subsequently, they were centrifuged at 8,000 x g for 5 min at 4 °C. The supernatant was aspirated and the pellet was washed with 0.01 M Tris-HCl before being resuspended in 200 µl of 0.01M Tris-HCl containing 0.5 M Sucrose, 150 µg/ml lysozyme, 10 mM EDTA and incubated at 37 °C overnight. These tubes were then centrifuged at 2,000 x g at 4°C for 10 min. The supernatant obtained represents the periplasm. The pellet containing spheroplasts was gently washed with 0.01 M Tris-HCl containing 0.5 M Sucrose and resuspended in 20 ml of B-PER™ Bacterial Protein Extraction Reagent (Thermo Fischer Scientific) for 1 h. After this, the spheroplasts were subjected to sonication (20kHz for 2×10 s), incubated on ice for 5 min and centrifuged at 20,000 x g for 30 min at 4 °C. The supernatant represents the cytoplasm. Both the periplasm and cytoplasm fragments were then mixed with 2, 6-Dihydroxyacetophenone (DHAP) in ACN 1:1, spotted on a MALDI plate and analyzed for MALDI-TOF-MS in a Bruker DaltonicsUltrafleXtreme Instrument. The experiment was performed two times and data of one representative experiment are shown.

[1] = system: fabF (3-oxoacyl-[acyl carrier protein] synthase 2) transcript; experiment: RNA-seq, fabF transcript; type: cell-based, Salmonella enterica serovar Typhimurium strain SL1344; details: 5 µM KFF-ASO conjugate, 15 min
Procedure: RNA isolation was performed using previously published protocols ([30],[31]). Bacterial overnight cultures were diluted 1:100 in fresh MHB and grown to OD600 0.5. The cultures were diluted to approximately 10^6 cfu/ml in non-cation-adjusted MHB. Afterwards, an aliquot of the bacterial solution was transferred into 5 ml low-binding tubes (LABsolute) containing the ASOs solution (adjusted such that the final concentration was 5 μM for all tested compounds). As a negative control, cells were treated with the respective volume of sterile nuclease-free water, which was used as solvent for the ASOs. […]
Total RNA was purified from bacterial pellets using the miRNeasy Mini kit (Qiagen) according to protocol #3 described in ([30]). […] RNA concentration was measured with a NanoDrop spectrophotometer.
For transcriptomic analyses, RNA samples were processed and subjected to RNA-seq at Core Unit SysMed (University of Würzburg, Germany). […] Sequencing of pooled libraries, spiked with 5% PhiX control library, was performed at 10 million reads/sample in single-end mode with 75 nt read length on the NextSeq 500 platform (Illumina) using High output sequencing kits. […]
RNA-seq data analysis was performed similarly to our previous analysis of PNA activity in S. enterica ([30]). Briefly, adapters and low-quality bases (Phred quality score <10) of raw reads were trimmed using BBduk. […]

Substance	Uptake inside bacteria (MS) (Salmonella periplasm)	fabF transcript level [1]
DNA-PTO: 10mer phosphorothioate-modified DNA antisense oligomer, sequence CTCATACTCT, targeting acpP (antisense dC*dT*dC*dA*dT*dA*dC*dT*dC*dT)	-	
LNA: 10mer 2'-4'-locked RNA antisense oligomer, sequence CTCATACTCT, targeting acpP (all LNA, backbone and methylation of C not given here)	-	
PMO: 10mer phosphorodiamidate morpholino antisense oligomer, sequence CTCATACTCT, targeting acpP (all phosphorodiamidate morpholino (PMO))		Reduction
PNA: 10mer peptide nucleic acid antisense oligomer, sequence CTCATACTCT, targeting acpP (all peptide nucleic acid (PNA))		Reduction
RNA-F: 10mer 2'-fluorinated RNA antisense oligomer, sequence CTCATACTCT, targeting acpP (all 2'-fluoro, backbone and T or U not given here)	-	
RNA-MOE: 10mer 2'-methoxyethylated RNA antisense oligomer, sequence CTCATACTCT, targeting acpP (all 2'-MOE, backbone and methylation of C not given here)	-	
RNA-OMe: 10mer 2'-methylated RNA antisense oligomer, sequence CTCATACTCT, targeting acpP (all 2'-O-methyl, backbone and T or U not given here)	-	
